Experimental data: patent US20090137391A1, “Use of benzyladenine to improve emergence of seeds treated with abscisic acid” (priority 2007, published 2009)

Experiments:
Format in all cases: in vivo
[1] = tested on: canola seed; test: Canola seed treatment, soil emergence: ABA-dose x benzyladenine (technical powder) dose factorial
Experimental: The experiment was set up as an ABA-dose×BA-dose factorial experiment, with four doses of ABA (0, 25, 50, and 100 g/cwt) and four doses of benzyladenine (0, 1, 5 and 25 g/cwt) for a total of 16 treatment combinations. The treatments were made up in 1 ml samples of experimental aqueous seed treatment slurry. ABA was added in the form of a water solution of the ammonium salt. Benzyladenine was added as technical powder. Ten μl Tween-20 were added to each sample to help wet and suspend the benzyladenine powder. All of the seed treatment slurry samples contained CF-Clear film-forming agent and Color Coat Red (Becker Underwood), each at 1 oz/cwt, and 0.167 oz/cwt Maxim XL fungicide (Syngenta). The slurry application volume was 40 […]=100 lbs of seed). Ten gram samples of canola seed were treated with the experimental slurries using a Hege 11 seed treater with a six-inch bowl. The seed was planted in plastic boxes containing 1 kg of typical agricultural silt loam. One hundred seeds were planted 2 cm deep in each plastic box, and the soil in the box was adjusted to 21% soil moisture (wet-weight basis). Two replications of the experiment were incubated under constant light in a 10° C. chamber. The soil temperature averaged 12.6° C. The boxes were watered up to the correct weight every 1-2 days, and checked for emergence. Counts of seedlings were continued until it became clear that emergence had ceased (28 days). The final count of emerged seedlings was expressed as a percentage of the 100 seeds planted. The daily counts were converted to proportions of the final emergence of the box, and a Gompertz curve was fitted to the data from each box using SAS Proc NLIN. […] Analysis of variance was performed and means calculated for each of the three responses (Final emergence, […]).

[2] = tested on: canola seed; test: Canola seed treatment, soil emergence: ABA-dose x benzyladenine (as Maxcel) dose factorial
Experimental: (§1) The seed was planted in plastic boxes containing 1 kg of typical agricultural silt loam. One hundred seeds were planted 2 cm deep in each plastic box, and the soil in the box was adjusted to 21% soil moisture (wet-weight basis). Two replications of the experiment were incubated under constant light in a 10° C. chamber. The soil temperature averaged 12.6° C. The boxes were watered up to the correct weight every 1-2 days, and checked for emergence. Counts of seedlings were continued until it became clear that emergence had ceased (28 days). The final count of emerged seedlings was expressed as a percentage of the 100 seeds planted.
(§2) The daily counts were converted to proportions of the final emergence of the box, and a Gompertz curve was fitted to the data from each box using SAS Proc NLIN. From the parameters of the model, median emergence time (T50) and quartile range (Qrange) were estimated for each box. Analysis of variance was performed and means calculated for each of the three responses (Final emergence, T50, Qrange).
The experiment was set up as an ABA-dose x benzyladenine-dose factorial experiment, with four doses of ABA (0, 25, 50 and- 100 g/cwt) and three doses of benzyladenine (0, 1 and 5 g/cwt) for a total of 12 treatment combinations. The treatments were made up in 1 ml samples of experimental aqueous seed treatment slurry. ABA was added in the form of a water solution of the ammonium salt. Benzyladenine was added in the form of Maxcel. Treatments receiving less than the maximum amount of Maxcel, received an appropriate amount of Maxcel blank formulation, so that each slurry sample was identical with regard to Maxcel inert ingredients. All of the seed treatment slurry samples contained CF-Clear film-forming agent and Colorcoat Red (Becker Underwood), each at 1 oz/cwt, and 0.167 oz/cwt Maxim XL fungicide (Syngenta). The slurry application volume was 40 oz/cwt (cwt=100 lbs of seed). Ten gram samples of canola seed were treated with the experimental slurries using a Hege 11 seed treater with a six-inch bowl.
The seed was germinated and data analyzed as described under Example 1.

[3] = tested on: canola seed; test: Canola seed treatment, soil emergence: ABA-dose x CPPU (as Prestige) dose factorial
Experimental: as §1, §2
The experiment was set up as an ABA-dose×CPPU-dose factorial experiment, with four doses of ABA (0, 25, 50 and 100 g/cwt) and […] doses of CPPU (0, 0.04, 0.2 and 1 g/cwt) for a total of 16 treatment combinations. The treatments were made up in 1 ml samples of experimental aqueous seed treatment slurry. ABA was added as the free acid. CPPU was added in the form of Prestige®. Treatments receiving less than the maximum amount of Prestige, received an appropriate amount of Prestige blank formulation, so that each slurry sample was identical with regard to Prestige inert ingredients. All of the seed treatment slurry samples contained CF-Clear film-forming agent and Colorcoat Red (Becker Underwood), each at 1 oz/cwt, and 0.167 oz/cwt Maxim XL fungicide (Syngenta). The slurry application volume was 40 oz/cwt (cwt=100 lbs of seed). Ten gram samples of canola seed were treated with the experimental slurries using a Hege 11 seed treater with a six-inch bowl.
The seed was germinated and data analyzed as described under Example 1, except that emergence, being unusually low in this trial, rendered the quartile range estimates unreliable. Therefore, quartile range values are not shown.

[4] = tested on: canola seed; test: Canola seed treatment, soil emergence: ABA-dose x GA4/7 dose factorial; conditions: for Final emergence / QR / T50: GA4/7 dose 0 g/cwt
Experimental: The experiment was set up as an ABA-dose×GA4/7-dose factorial experiment, with four doses of ABA (0, 25, 50 and 100 g/cwt) and […] doses of GA4/7 (0, 1, 5 and 25 g/cwt) for a total of 16 treatment combinations. The treatments were made up in 1 ml samples of experimental aqueous seed treatment slurry. ABA and GA4/7 were added as the free acid technical powders. All of the seed treatment slurry samples contained CF-Clear film-forming agent and Colorcoat Red (Becker Underwood), each at 1 oz/cwt, and 0.167 oz/cwt Maxim XL fungicide (Syngenta). The slurry application volume was 40 oz/cwt (cwt=100 lbs of seed). Ten gram samples of canola seed were treated with the experimental slurries using a Hege 11 seed treater with a six-inch bowl.

[5] = ABA dose 0 g/cwt, Benzyladenine dose 1 g/cwt (technical powder)
[6] = ABA dose 0 g/cwt, Benzyladenine dose 5 g/cwt (technical powder)
[7] = ABA dose 0 g/cwt, Benzyladenine dose 25 g/cwt (technical powder)
[8] = ABA dose 0 g/cwt, Benzyladenine dose 1 g/cwt (in the form of Maxcel)
[9] = ABA dose 0 g/cwt, Benzyladenine dose 5 g/cwt (in the form of Maxcel)
[10] = ABA dose 0 g/cwt, CPPU dose 0.04 g/cwt (in the form of Prestige)
[11] = ABA dose 0 g/cwt, CPPU dose 0.2 g/cwt (in the form of Prestige)
[12] = ABA dose 0 g/cwt, CPPU dose 1 g/cwt (in the form of Prestige)
[13] = ABA (ammonium salt) dose 25 g/cwt, Benzyladenine dose 0 g/cwt
[14] = ABA (ammonium salt) dose 50 g/cwt, Benzyladenine dose 0 g/cwt
[15] = ABA (ammonium salt) dose 100 g/cwt, Benzyladenine dose 0 g/cwt
[16] = ABA (free acid) dose 25 g/cwt, CPPU dose 0 g/cwt (Prestige blank)
[17] = ABA (free acid) dose 50 g/cwt, CPPU dose 0 g/cwt (Prestige blank)
[18] = ABA (free acid) dose 100 g/cwt, CPPU dose 0 g/cwt (Prestige blank)
[19] = ABA (ammonium salt) dose 25 g/cwt, Benzyladenine dose 0 g/cwt (Maxcel blank)
[20] = ABA (ammonium salt) dose 50 g/cwt, Benzyladenine dose 0 g/cwt (Maxcel blank)
[21] = ABA (ammonium salt) dose 100 g/cwt, Benzyladenine dose 0 g/cwt (Maxcel blank)

c1ccc(CNc2[nH]cnc3ncnc2-3)cc1 [Benzyladenine, N^6-phenylmethyl-1H-purin-6-amine]
Final emergence [1, 5]: 98.0% | Qrange [1, 5]: 1.30 days | T50 [1, 5]: 6.37 days | Final emergence [1, 6]: 91.6% | Qrange [1, 6]: 2.36 days | T50 [1, 6]: 6.76 days | Final emergence [1, 7]: 89.9% | Qrange [1, 7]: 3.02 days | T50 [1, 7]: 7.88 days | Final emergence [2, 8]: 97.5% | Qrange [2, 8]: 1.84 days | T50 [2, 8]: 6.02 days | Final emergence [2, 9]: 97.1% | Qrange [2, 9]: 1.77 days | T50 [2, 9]: 6.09 days

O=C(Nc1ccccc1)Nc1ccnc(Cl)c1 [CPPU]
Final emergence [3, 10]: 80.3% | T50 [3, 10]: 7.12 days | Final emergence [3, 11]: 78.1% | T50 [3, 11]: 7.48 days | Final emergence [3, 12]: 77.6% | T50 [3, 12]: 8.30 days

S-(+)- abscisic acid [ABA]
Final emergence [1, 13]: 92.3% | Qrange [1, 13]: 3.26 days | T50 [1, 13]: 9.15 days | Final emergence [1, 14]: 68.9% | Qrange [1, 14]: 4.27 days | T50 [1, 14]: 11.20 days | Final emergence [1, 15]: 53.5% | Qrange [1, 15]: 4.27 days | T50 [1, 15]: 12.74 days | Final emergence ([1]; ABA at a dose of 100 g/cwt): roughly cut in half | Final emergence [3, 16]: 84.0% | T50 [3, 16]: 10.4 days | Final emergence [3, 17]: 66.0% | T50 [3, 17]: 12.16 days | Final emergence [3, 18]: 48.0% | T50 [3, 18]: 16.48 days | emergence ([3]; high doses of ABA): significant and important reduction in emergence | Final emergence ([4]; ABA (free acid) dose 25 g/cwt): 84.0% | QR ([4]; ABA (free acid) dose 25 g/cwt): 3.33 days | T50 ([4]; ABA (free acid) dose 25 g/cwt): 10.42 days | Final emergence ([4]; ABA (free acid) dose 50 g/cwt): 66.0% | QR ([4]; ABA (free acid) dose 50 g/cwt): 3.38 days | T50 ([4]; ABA (free acid) dose 50 g/cwt): 12.16 days | Final emergence ([4]; ABA (free acid) dose 100 g/cwt): 48.0% | QR ([4]; ABA (free acid) dose 100 g/cwt): 5.69 days | T50 ([4]; ABA (free acid) dose 100 g/cwt): 16.48 days | emergence ([4]; high doses of ABA alone): significant and important reduction in emergence | Final emergence [2, 19]: 92.9% | Qrange [2, 19]: 2.06 days | T50 [2, 19]: 8.17 days | Final emergence [2, 20]: 91.4% | Qrange [2, 20]: 3.74 days | T50 [2, 20]: 10.57 days | Final emergence [2, 21]: 49.5% | Qrange [2, 21]: 5.84 days | T50 [2, 21]: 13.61 days | Final emergence ([2]; ABA at a dose of 100 g/cwt): roughly cut in half
